Key:
MRSA KM 97-108 [1] = assay: Antibacterial activity test (MIC); assay type: cell-based, methicillin-resistant Staphylococcus aureus; conditions: Mueller-Hinton Broth, 37° C., 20 to 24 hours
In short: (§1)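 Broth dilution MIC per Japanese Society of Chemotherapy method, in Mueller-Hinton Broth with inoculum of 10^5/ml from 16–20 h cultures at 37° C. Compound (methanol-dissolved) tested at 100 μg/ml and 2^n-fold (n=−10 to 1) twofold steps; MIC expressed in μg/ml.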

MRSA KM 97-53 [2] = assay: Antibacterial activity test (MIC); assay type: cell-based, methicillin-resistant Staphylococcus aureus; conditions: Mueller-Hinton Broth, 37° C., 20 to 24 hours
In short: as §1

MRSA 97-115 [3] = assay: Antibacterial activity test (MIC); assay type: cell-based, methicillin-resistant Staphylococcus aureus; conditions: Mueller-Hinton Broth, 37° C., 20 to 24 hours
In short: as §1

MRSA KM 97-108 [4] = assay: Bactericidal activity test (MBC, phenol coefficient measuring method); assay type: cell-based, methicillin-resistant Staphylococcus aureus
In short: (§2)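 Using a phenol-coefficient format, the cell suspension (1×10^7/ml) is added to twofold compound dilutions, sampled after 1, 3 and 5 minutes and regrown in heart infusion bouillon at 37° C. The MBC, in μg/ml, is the minimum concentration without growth in two or more of three tests.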

MRSA KM 97-53 [5] = assay: as above; assay type: cell-based, methicillin-resistant Staphylococcus aureus
In short: as §2

MRSA 97-115 [6] = assay: as above; assay type: cell-based, methicillin-resistant Staphylococcus aureus
In short: as §2

P. aeruginosa KM 97-5 [7] = assay: Antibacterial activity test (MIC); assay type: cell-based; conditions: Mueller-Hinton Broth, 37° C., 20 to 24 hours
In short: as §1

E. coli NIHJ JC-2 [8] = assay: Antibacterial activity test (MIC); assay type: cell-based; conditions: Mueller-Hinton Broth, 37° C., 20 to 24 hours
In short: as §1

S. aureus 209PJC [9] = assay: Antibacterial activity test (MIC); assay type: cell-based; conditions: Mueller-Hinton Broth, 37° C., 20 to 24 hours
In short: as §1

P. aeruginosa PAO-1 [10] = assay: Antibacterial activity test (MIC); assay type: cell-based; conditions: Mueller-Hinton Broth, 37° C., 20 to 24 hours
In short: as §1

P. aeruginosa No. 12 [11] = assay: Antibacterial activity test (MIC); assay type: cell-based; conditions: Mueller-Hinton Broth, 37° C., 20 to 24 hours
In short: as §1

VRE 49 [12] = assay: Antibacterial activity test (MIC); assay type: cell-based, vancomycin-resistant enterococci; conditions: Mueller-Hinton Broth, 37° C., 20 to 24 hours
Method: Regarding compounds obtained in respective Working Examples, in order to investigate antibacterial activity, minimal inhibitory concentration (MIC) was determined according to a standard method of Japanese Society of Chemotherapy.
As a test bacterium, nine kinds of S. aureus 209PJC, MRSA 97-115, MRSA KM 97-53, MRSA KM97-108, VRE 49, E. coli NIHJ JC-2, P. aeruginosa PAO-1, P. aeruginosa No. 12, P. aeruginosa KM97-5 were used and, as a medium, Mueller-Hinton Broth (DIFCO) was used. One platinum loop of a test bacterium was inoculated into 20 ml of a medium, and static culture was carried out at 37° C. for 16 to 20 hours, and then each bacterium species was diluted with a sterilized physiological saline to 10^5/ml, which was used as a test bacterium solution.
Then, each compound was dissolved in methanol, subjected to ½ stepwise dilution with a medium to prepare a medium for measuring sensitivity, and each 2 ml was dispensed into a test tube. A compound concentration in a medium was adjusted to 100 μg/ml and its 2^n-fold (n=−10 to 1).
Numerical values in Tables represent MIC expressed in μg/ml unit.

P. aeruginosa KM 97-5 [13] = assay: Bactericidal activity test (MBC, phenol coefficient measuring method); assay type: cell-based
In short: as §2

E. coli NIHJ JC-2 [14] = assay: as above; assay type: cell-based
In short: as §2

S. aureus 209PJC [15] = assay: as above; assay type: cell-based
In short: as §2

P. aeruginosa PAO-1 [16] = assay: as above; assay type: cell-based
In short: as §2

P. aeruginosa No. 12 [17] = assay: as above; assay type: cell-based
In short: as §2

VRE 49 [18] = assay: as above; assay type: cell-based, vancomycin-resistant enterococci
Method: As a test bacterium, the same bacteria species as those of the antibacterial activity test were used; as a medium to be used, a SCD medium (manufactured by Eiken Chemical Co., Ltd.) was used for pre-culture medium; and a heart infusion bouillon medium (manufactured by Eiken Chemical Co., Ltd.) was used as a medium for growing a live bacterium in a test solution after bactericidal treatment. One platinum loop of a test bacterium was inoculated into 20 ml of a medium, and static culture was carried out at 37° C. for 18 to 20 hours, and the cells were adjusted with a sterilized physiological saline to 1×10^7/ml, which was used as a test bacterium solution.
Then, a solution of each compound in methanol was subjected to ½ stepwise dilution with sterilized water, each 5 ml was dispensed into a test tube, 0.5 ml of the previously prepared test bacterium solution was added thereto, and the mixture was blended well. After 1 minute, 3 minutes and 5 minutes has passed, 5 μl of the test solution was collected and inoculated into 2 ml of a heart infusion bouillon medium, this was cultured at 37° C. for 40 to 48 hours, and the presence or absence of growth of a bacterium was determined. A test was performed three times, a minimum concentration at which growth of a bacterium was not recognized two or more times was adopted as a minimal bactericidal concentration (MBC value).
Numerical values in Tables represent MBC expressed in μg/ml unit.

| SMILES | minimal inhibitory concentration (MIC) (MRSA KM 97-108 [1]) [µg/mL] | minimal inhibitory concentration (MIC) (MRSA KM 97-53 [2]) [µg/mL] | minimal inhibitory concentration (MIC) (MRSA 97-115 [3]) [µg/mL] | minimal bactericidal concentration (MBC) (MRSA KM 97-108 [4]; 1 min) [µg/mL] | minimal bactericidal concentration (MBC) (MRSA KM 97-108 [4]; 3 min) [µg/mL] | minimal bactericidal concentration (MBC) (MRSA KM 97-108 [4]; 5 min) [µg/mL] | minimal bactericidal concentration (MBC) (MRSA KM 97-53 [5]; 1 min) [µg/mL] | minimal bactericidal concentration (MBC) (MRSA KM 97-53 [5]; 3 min) [µg/mL] | minimal bactericidal concentration (MBC) (MRSA KM 97-53 [5]; 5 min) [µg/mL] | minimal bactericidal concentration (MBC) (MRSA 97-115 [6]; 1 min) [µg/mL] | minimal bactericidal concentration (MBC) (MRSA 97-115 [6]; 3 min) [µg/mL] | minimal bactericidal concentration (MBC) (MRSA 97-115 [6]; 5 min) [µg/mL] | minimal inhibitory concentration (MIC) (P. aeruginosa KM 97-5 [7]) [µg/mL] | minimal inhibitory concentration (MIC) (E. coli NIHJ JC-2 [8]) [µg/mL] | minimal inhibitory concentration (MIC) (S. aureus 209PJC [9]) [µg/mL] | minimal inhibitory concentration (MIC) (P. aeruginosa PAO-1 [10]) [µg/mL] | minimal inhibitory concentration (MIC) (P. aeruginosa No. 12 [11]) [µg/mL] | minimal inhibitory concentration (MIC) (VRE 49 [12]) [µg/mL] | minimal bactericidal concentration (MBC) (P. aeruginosa KM 97-5 [13]; 1 min) [µg/mL] | minimal bactericidal concentration (MBC) (P. aeruginosa KM 97-5 [13]; 3 min) [µg/mL] | other results |
| --- | --- | --- | --- | --- | --- | --- | --- | --- | --- | --- | --- | --- | --- | --- | --- | --- | --- | --- | --- | --- | --- |
| CC(=O)O.CCCCCCCCNC1=NC(C)(C)N=C(NCc2ccc(C)cc2)N1 [compound 58] | 1.6 | 1.6 | 0.4 | 50 | 50 | 25 | 50 | 50 | 25 | 25 | 25 | 12.5 | 25 | 12.5 | 0.4 | 12.5 | 25 | 1.6 | 6.3 | 3.1 | minimal bactericidal concentration (MBC) (P. aeruginosa KM 97-5 [13]; 5 min): 3.1 µg/mL; minimal bactericidal concentration (MBC) (E. coli NIHJ JC-2 [14]; 1 min): 12.5 µg/mL; minimal bactericidal concentration (MBC) (E. coli NIHJ JC-2 [14]; 3 min): 6.3 µg/mL; minimal bactericidal concentration (MBC) (E. coli NIHJ JC-2 [14]; 5 min): 6.3 µg/mL; minimal bactericidal concentration (MBC) (S. aureus 209PJC [15]; 1 min): 6.3 µg/mL; minimal bactericidal concentration (MBC) (S. aureus 209PJC [15]; 3 min): 3.1 µg/mL; minimal bactericidal concentration (MBC) (S. aureus 209PJC [15]; 5 min): 3.1 µg/mL; minimal bactericidal concentration (MBC) (P. aeruginosa PAO-1 [16]; 1 min): 12.5 µg/mL; minimal bactericidal concentration (MBC) (P. aeruginosa PAO-1 [16]; 3 min): 6.3 µg/mL; minimal bactericidal concentration (MBC) (P. aeruginosa PAO-1 [16]; 5 min): 3.1 µg/mL; minimal bactericidal concentration (MBC) (P. aeruginosa No. 12 [17]; 1 min): 6.3 µg/mL; minimal bactericidal concentration (MBC) (P. aeruginosa No. 12 [17]; 3 min): 6.3 µg/mL; minimal bactericidal concentration (MBC) (P. aeruginosa No. 12 [17]; 5 min): 3.1 µg/mL; minimal bactericidal concentration (MBC) (VRE 49 [18]; 1 min): 25 µg/mL; minimal bactericidal concentration (MBC) (VRE 49 [18]; 3 min): 25 µg/mL; minimal bactericidal concentration (MBC) (VRE 49 [18]; 5 min): 12.5 µg/mL |
| CC(=O)O.CCCCCCCCNC1=NC(C)(C)N=C(NCCCCCC)N1 [compound 68] | 1.6 | 1.6 | 0.8 | 50 | 25 | 25 | 50 | 25 | 25 | 12.5 | 6.3 | 6.3 | 50 | 12.5 | 0.8 | 50 | 50 | 1.6 | 12.5 | 6.3 | minimal bactericidal concentration (MBC) (P. aeruginosa KM 97-5 [13]; 5 min): 6.3 µg/mL; minimal bactericidal concentration (MBC) (E. coli NIHJ JC-2 [14]; 1 min): 12.5 µg/mL; minimal bactericidal concentration (MBC) (E. coli NIHJ JC-2 [14]; 3 min): 6.3 µg/mL; minimal bactericidal concentration (MBC) (E. coli NIHJ JC-2 [14]; 5 min): 6.3 µg/mL; minimal bactericidal concentration (MBC) (S. aureus 209PJC [15]; 1 min): 12.5 µg/mL; minimal bactericidal concentration (MBC) (S. aureus 209PJC [15]; 3 min): 6.3 µg/mL; minimal bactericidal concentration (MBC) (S. aureus 209PJC [15]; 5 min): 6.3 µg/mL; minimal bactericidal concentration (MBC) (P. aeruginosa PAO-1 [16]; 1 min): 6.3 µg/mL; minimal bactericidal concentration (MBC) (P. aeruginosa PAO-1 [16]; 3 min): 3.1 µg/mL; minimal bactericidal concentration (MBC) (P. aeruginosa PAO-1 [16]; 5 min): 1.6 µg/mL; minimal bactericidal concentration (MBC) (P. aeruginosa No. 12 [17]; 1 min): 3.1 µg/mL; minimal bactericidal concentration (MBC) (P. aeruginosa No. 12 [17]; 3 min): 3.1 µg/mL; minimal bactericidal concentration (MBC) (P. aeruginosa No. 12 [17]; 5 min): 1.6 µg/mL; minimal bactericidal concentration (MBC) (VRE 49 [18]; 1 min): 25 µg/mL; minimal bactericidal concentration (MBC) (VRE 49 [18]; 3 min): 25 µg/mL; minimal bactericidal concentration (MBC) (VRE 49 [18]; 5 min): 12.5 µg/mL |

From patent US7622469B2, “2,4-diamino-1,3,5-triazine derivatives” (Hamari Chemicals, Ltd., priority 2002, dated 2009)
